Measurements reported in patent US20190365720A1, “Novel formulations of amidine substituted beta-lactam compounds on the basis of modified cyclodextrins and acidifying agents, their preparation and use as antimicrobial pharmaceutical compositions” (AiCuris Anti-Infective Cures GmbH, priority 2016, published 2019).
≈ marks a conversion by molar mass, not a printed value. Entries after “also recorded” stand apart in the source; their conditions may differ.

Columns and labels:
[1] = pH-dependent solubility of compound (I); format: physicochemical; conditions: 25 °C
Procedure: The solubility profile of the API of a compound of formula (I) was measured at two different pH values (see […]): FIG. 23: pH solubility profile in pure water at 25° C.

[2] = Calculated fraction of compound (I) bound to SBE-β-CD in blood plasma after i.v. administration; parameters: species or system mice; conditions: after i.v. administration at time zero
Procedure: On average, mice have 79 ml of blood per kg of body weight (see https://en.wikipedia.org/wiki/Blood_volume; Oct. 3, 2016). If the blood plasma is 55% of the total blood volume then mice have around 43 ml of plasma per kg of body weight. The dose was 25 mg/kg (0.037 mmoles/kg) of compound (I) and 156.5 mg/kg ([…]) of SBE-β-CD. After mixing with the blood plasma the initial plasma concentration should be 8.6.10^−4 M of compound (I) and 1.7.10^−3 M of SBE-β-CD.

[3] = Solubility of compound (I) in selected solvent systems by UPLC; format: physicochemical; conditions: aqueous with cosolvent or surfactant or cyclodextrin, thermodynamic from solid, 25° C.
Procedure: To determine the solubility of a compound (I) in selected solvent systems in accordance with the invention, UPLC was used, and physicochemical properties such as pH and physical appearance were monitored. The solubility of compound (I) in solution was determined at 25° C. separately in following solvent systems at three time points (at 2 hours, at 6 hours and at 24 hours) in duplicates. 1) Hydroxypropyl-β-cyclodextrin solution (30% w/v) 2) Hydroxypropyl-β-cyclodextrin (30% w/v) solution containing 2% CA 3) Solvent mixture of PEG400 (40%)+2% CA (60%) To the vial for each time point 3 mL of individual solvent were added followed by addition of the weighed amount of compound (I) (100 mg). This system was kept for stirring on a magnetic stirrer at 700 rpm. At each time point, the solution was filtered through a […] syringe filter and analysed for the content of compound (I) using UPLC after suitable dilutions.

female rabbits = experiment: Local tolerance after single intravenous infusion into the marginal ear vein; format: in vivo, rabbit
Procedure: The aim of this example was to test the local tolerance of a compound (I) containing aqueous injectable solution in accordance with the invention in female rabbits following a single intravenous infusion for 30 or 60 minutes. Each animal received 15 mL of a formulation containing 5 mg compound (I) as API per mL into the marginal vein of the right ear. Two groups of 9 female animals, each, were employed with infusion durations of 30 or 60 minutes per dose. In addition, a placebo solution as vehicle control, was administered in the same volume and duration on the left ear of each animal. 24, 72 and 96 hours after administration respectively 3 animals per group were sacrificed and the injection sites were examined macro- and microscopically. The application formulations were freshly prepared on the administration day. The compound (I) and the placebo were dissolved in the vehicles to the appropriate concentrations: 15 mL of WFI were added to 1 compound (I) drug product vial and shaken well. The solution volume expanded to approximately 17 mL. The final concentration was approximately 29 mg/mL. Withdraw 17 mL from 100 mL of lactated Ringer's solution. Then add the reconstituted solution (approx. 17 mL from step 1). Mix well. The final concentration was approximately […]. Species: rabbit; Strain: New Zealand White Selection of species: the rabbit is a commonly used species for local tolerance studies. Number and sex of animals: 18 female animals Age (at start of administration): approx. 3 months Body weight (at start of administration): 2.31 to 2.73 kg Acclimatisation period: at least 20 acclimatisation days; 4 test days Routes of administration: single intravenous infusion into the marginal vein of the ear. Selection of routes of administration: according to clinical use via intravenous route. The compound (I) solutions were administered to the right ear, and the placebo solutions were administered to the left ear of each animal. Local reactions were inspected macroscopically 1 […] and 96 h after injection. The reactions were scored on the basis of DRAIZE, Appraisal of the Safety of Chemicals in Food, Drugs and Cosmetics, Association of Food and Drug Officials of the United States, Austin, Tex., 1959. The animals scheduled for the respective dissection day were sacrificed with pentobarbitol injection into an ear vein (not used for infusion). All animals were subjected to gross examination including the opening of the cranial, thoracic and abdominal cavities and the examination of the major organs. Particular attention was paid to the appropriate injection sites (test and control items). All abnormalities were recorded. Tissue abnormalities would have been preserved in 10% neutral buffered formalin. Histopathological examination was performed on treated infusion sites (compound (I) and placebo, 2 sites per animal) plus an untreated adjacent site from all animals. Tissue samples were fixed in 10% buffered formalin. Paraffin sections (3 to 5 μm) were prepared, stained with hematoxylin-eosin, and examined histologically.

[4] = Physical / in-use stability of solutions at room temperature; format: physicochemical
[5] = Fraction bound to plasma protein in mice; format: in vitro ADME; conditions: mouse, read-out: Fraction bound to plasma protein (fp) (converted)

solubility ([1]; pure water (pH-adjusted, no cyclodextrin), pH 7.4, aqueous buffer): 1000 µg/mL (≈ 1.5 mM)
solubility ([1]; pure water, aqueous buffer, pH 4.0): 10000 µg/mL (≈ 15 mM)
Fraction of compound (I) free or bound to plasma proteins [2]: about 80%
Fraction of compound (I) bound to SBE-β-CD ([2]; 25 mg/kg with 156.5 mg/kg SBE-β-CD, plasma pH 7.4): about 22%
solubility ([3]; 30% HP-β-CD plus 2% CA): 16200 µg/mL
solubility ([3]; hydroxypropyl-β-cyclodextrin solution (30% w/v), 30% HP-β-CD as sole excipient): 2700 µg/mL (≈ 4.04 mM)
Stability after reconstitution [4]: 6 h
fraction unbound [5]: 0.779
SMILES: CC1(C)[C@H](NC(=O)/C(=N\O[C@@H](COc2ccc(C(=N)N[C@@H]3CCCNC3)cc2)C(=O)O)c2csc(N)n2)C(=O)N1OS(=O)(=O)O [compound (I)]
Body weight (female rabbits; 15 mL of 5 mg/mL i.v. infusion): No influence on the body weight
Clinical signs (female rabbits; 15 mL of 5 mg/mL i.v. infusion): No clinical signs of toxicity
Necropsy findings (female rabbits; 15 mL of 5 mg/mL i.v. infusion, 30 or 60 min): did not reveal any changes
Macroscopic changes at infusion sites (female rabbits; 15 mL of 5 mg/mL i.v. infusion, 30 or 60 min, inspected 1 h to 96 h): did not reveal any changes
Microscopic (histopathological) changes at infusion sites (female rabbits; 15 mL of 5 mg/mL i.v. infusion, 30 or 60 min, versus vehicle control sites): did not reveal any compound (I)-related changes; also recorded: did not cause any compound (I)-related histopathological changes
Compatibility following intravenous infusion (female rabbits; overall conclusion): very good compatibility
